Experimental data reported in US20100197602A1, “USE OF FOLLICULAR GONADOTROPIN RELEASING PEPTIDE AS A THERAPEUTIC AGENT IN THE TREATMENT OF STREPTOCOCCUS PNEUMONIAE INFECTION” (priority 2007, published 2010).
Residues, ends and D or L forms follow the SMILES beside them.

System: drug-resistant Mycobacterium tuberculosis
Conditions: drug-resistant Mycobacterium tuberculosis (PAS, streptomycin, INH); peptide 10 micrograms per ml; seven days

SMILES: C[C@@H](O)[C@H](N)C(=O)N[C@@H](CC(=O)O)C(=O)N[C@H](C(=O)N[C@@H](CO)C(=O)N[C@@H](Cc1c[nH]cn1)C(=O)N[C@@H](Cc1c[nH]cn1)C(=O)N[C@@H](CC(=O)O)C(=O)N[C@@H](CCC(N)=O)C(=O)N[C@@H](CC(=O)O)C(=O)N[C@@H](Cc1c[nH]cn1)C(=O)N1CCC[C@H]1C(=O)N[C@H](C(=O)N[C@@H](Cc1ccccc1)C(=O)N[C@@H](CC(N)=O)C(=O)O)[C@@H](C)O)[C@@H](C)O [FGRP, Thr-Asp-Thr-Ser-His-His-Asp-Gln-Asp-His-Pro-Thr-Phe-Asn-OH] (H-TDTSHHDQDHPTFN-OH)
- % inhibition: 0.0%
